Measured values: patent publication US12291494B2, “Methods of treating fibrosis” (Nogra Pharma Limited, priority 2012, dated 2025)

How the values were obtained:
[1] = tested on: Male C57bl6 mice; experiment: CCl4-induced liver fibrosis: histology (Metavir score); type: in vivo
Procedure: Liver fibrosis was induced in Male C57bl6 mice (Charles River, l'Arbresle, France) by injection of carbon tetrachloride (CCl4). The C57bl6 mice weighed 22-25 g and were maintained in laboratory conditions for 1 week before experiment. Animals were housed 5 per cage with food and water available ad libitum.
The effectiveness of compound 34 (specific ligand of PPARg) as compared to JWH-133 (anti-fibrogenic agent) was evaluated. Compound 34 was administered orally in combination with CCl4 injections for ca. 5 weeks. Compound 34 was dosed daily at 200 uL of a 30 mM solution. JWH-133 was administered daily via intraperitoneal injections at 3 mg/kg (dose volume=100 uL). The model of liver fibrosis is induced by chronic exposure to increased dosages of CCl4 for 5 weeks. The first week, mice received an intraperitoneal injection of CCl4, resuspended in olive oil, at the dosage of 80 μl/kg of mice body weight twice a week. At week 2, 3 injections of CCl4 at the dosage of 160 μl/kg were performed every two days. At week 3, 3 injections of CCl4 at the dosage of 240 μl/kg were performed every two days. At week 4, 3 injections of CCl4 at the dosage of 320 μl/kg were performed every two days. Mice were euthanized, at week 5, 3 days after the last CCl4 administration.
The formalin-fixed liver tissue was processed and 5 μm thick paraffin sections were stained with hematoxylin and eosin (H&E) and Picrosirius red staining (specific coloration for collagen in tissue sections) to evaluate the degree of fibrosis in the liver. Each section was analyzed blindly by 3 different experimenters for the quantification of the degree of fibrosis for each lobe of the liver (5) using the Metavir score (see FIG. 2A for Metavir Score chart). The photographs seen in FIG. 2B were obtained with a 20× objective.

[2] = tested on: C57bl6 mice; experiment: DSS intestinal fibrosis study: inflammation level by histology (May-Grunwald-Giemsa); type: in vivo; conditions: colon, MGG staining; DSS vehicle 3.77±0.80, control 0.50±0.33
Procedure: Rings of the transverse part of the colon were sampled (post mortem) and fixed in 4% formaldehyde and embedded in paraffin for histological analysis. Sections (4 μm) were stained with May-Grunwald-Giemsa and a multiparametric histological scoring (0 to 18) was performed blindly by two investigators. This staining allowed the quantification of inflammation. Histological grades, reflecting the inflammation level, were assigned based on the intensity of cellular infiltrate in the mucosa, its extension in sub-mucosa layers and the presence of epithelial lesions (see Table 5).

[3] = tested on: main markers of fibrosis (Collagen I-III, CTGF, SMAD 2/3, PDGF, α-SMA, and TGF-β1); experiment: DSS intestinal fibrosis study: immunohistochemical analysis of colon; type: in vivo, mice
Procedure: For the immunohistochemical analysis, tissue specimens from the colon were fixed in fresh 4% paraformaldehyde (PFA)/PBS solution for 3 h at room temperature, dehydrated in a graded ethanol series, and embedded in low-temperature-fusion paraffin. 3-μm-thick sections were incubated in methanol for 40 min and then in 3% hydrogen peroxide for 5 min. Samples were incubated overnight with specific antibodies against collagen types I-III (Abcam), connective tissue growth factor (CTGF) (Abcam), Platelet Derived Growth factor (PDGF), SMAD2/3, the main markers of fibrosis. The samples were washed for 5 min with PBS and incubated with streptavidin-biotin-peroxidase conjugated secondary antibody (Dako LSAB Corporation, cod K0675, Dako-Cytomation, Milano). After a wash in PBS for 10 min the sections were subjected to incubation with 3,3-diaminobenzidine-tetrahydrochloride for 1-3 min.
The specificity of immune reaction was performed omitting the primary antibodies Finally the samples were stained with hematoxylin of Mayer and observed under the Olympus BX51 Light Microscope (Olympus, Optical Co. Ltd., Tokyo, Japan).

[4] = tested on: C57BL/6 mice; experiment: DSS chronic colitis (Ex. 7): assessment of colitis course; type: in vivo
Procedure: Chronic colitis and fibrosis were induced in mice by oral administration of 2.5% (w/v) DSS in drinking water, for three cycles (5 day DSS, 7 days of water). Animals were monitored daily for food and fluid intake and were weighed at the beginning of the study and thereafter regularly every three days.
The mice were randomly divided into two groups: i. DSS and ii. DSS+GED. Each group consisted of 25 mice and was compared with 10 control animals, which received only water. GED (30 mg/kg/mouse) was dissolved in a solution containing 0.5% Carboxymethylcellulose sodium salt (CMC; MW: 90,000 Da; Sigma Aldrich) and 1% Tween 80 and was administrated daily by oral gavage (100 μl/mouse). GED was administered at the beginning of second cycle.
Animals were observed daily for fluid intake, weight changes, and examined for signs of colitis including weight loss, diarrhoea, rectal bleeding and prolapse as well as signs of systemic inflammation such as piloerection, lethargy, and periorbital exudates.

[5] = tested on: Collagen I-III; experiment: DSS chronic colitis (Ex. 7): Western blot, Collagen I-III; type: in vivo, mice; conditions: percentage of the mean of control group, normalized with GAPDH; DSS 284.4%±63.8%
Procedure: (§1) 0.5 cm of frozen colonic samples were cut and mechanically homogenized in RIPA Buffer containing 50 mMTrisHCl pH 7.6, 150 mMNaCl, 1.5 mM MgCl2, 5 mM EDTA, 1% Triton-X and 10% Glycerol, supplemented with 100 mM Sodium Fluoride (NaF), 2 mM Sodium Orthovanadate (Na3VO4), 10 mM Sodium Pyrophosphate (NaPPi), 1 mMphenylmethanesulphone (PMSF) and a classical protease-inhibitor cocktail containing 10 μg/mL Leupeptin and Aprotinin.
(§2) 30 μg of protein for each sample were separated by PAGE and electroblotted. 100% pure Nitrocellulose membranes were incubated (according with a specific protocol for each antibody) with primary antibodies directed against TGF-β1, CTGF, α-SMA, Collagen-I and GAPDH (purchased from Abcam, Cambridge, UK; 1:1000 for 2 h at RT), and IL-13 (purchased from Antibodies online; 1:1000 for 2 h at RT) diluted in 5% non fat-milk in 0.1% TBS-t. […] Optical density of target bands was determined using a computer-assisted densitometer and the ImageJ public domain software (W. S., Rasband, ImageJ, U. S. National Institutes of Health, Bethesda, MD; http://rsb.info.nih.gov/ij/, 1997-2011). Tissue levels were expressed as units of Optical Density (OD) per quantity of total proteins, normalizing with internal control GAPDH and the results were expressed as percentage of control groups.

[6] = tested on: IL-13; experiment: DSS chronic colitis (Ex. 7): Western blot, IL-13; type: in vivo, mice; conditions: percentage of optical density vs control group, normalized with GAPDH; DSS 189.5%±28.71%
Procedure: as §1, §2

COC(Cc1ccc(N)cc1)C(=O)O (racemic) [Compound 34, (±)-2-methoxy-3-(4′-aminophenyl) propionic acid]
decrease of the fibrotic score (adapted Metavir score) compared to untreated animals ([1]; FIG. 3B): 12.5% | mean Metavir score (FIG. 3A) ([1]; compound 34 30 mM 200 uL oral daily, JWH-133 3 mg/kg i.p. daily, CCl4 vehicle group 2.5±0.5): 2.1±0.2 | degree of fibrosis (Metavir) ([1]; result in words): decrease in the degree of fibrosis from severe to moderate fibrosis | inflammation level, histological score (0 to 18) [2]: 2.18±0.48 | main markers of fibrosis (Collagen I-III, CTGF, SMAD 2/3, PDGF, α-SMA, TGF-β1) by IHC ([3]; colon of DSS mice vs colitic mice receiving vehicle, FIG. 9A-9E): a reduction of the main markers of fibrosis | collagen staining (immunohistochemical analysis) ([3]; colon of DSS mice, FIG. 9A): decrease in the collagen staining | Body weight ([4]; chronic DSS colitis, GED 30 mg/kg oral daily, mean ± SEM): 25.132 ± 0.458 ^ | Mortality ([4]; chronic DSS colitis, GED 30 mg/kg oral gavage daily, DSS 2): 0 n. mice | mice with systemic manifestations (piloerection, periorbital exudates and/or lethargy) ([4]; seventh day of DSS oral administration, DSS mice 40%): 30% | mice with moderate to severe diarrhea ([4]; seventh day of DSS oral administration, DSS mice 70%): 50% | Collagen I-III expression level (Western blot) [5]: 90.75%±19.9% | IL-13 expression level (Western blot) [6]: 88.88%±14.01%
